We go through 8 compounds from US5639780A, “N-benzyl indol-3-yl butanoic acid derivatives as cyclooxygenase inhibitors” (priority 1995, dated 1997).

Counter-ions that a name gives are not always drawn. Like-named read-outs stand apart in the source and are kept apart here.

The target in test [1] is T1, cyclooxygenase-2 (human osteosarcoma 143 cells) (Homo sapiens, UniProt P35354).
T1 construct: human osteosarcoma 143 cells (which specifically express cyclooxygenase-2); endogenous in cells; host or cells: human osteosarcoma 143 cells
T1 sequence (P35354 18-604): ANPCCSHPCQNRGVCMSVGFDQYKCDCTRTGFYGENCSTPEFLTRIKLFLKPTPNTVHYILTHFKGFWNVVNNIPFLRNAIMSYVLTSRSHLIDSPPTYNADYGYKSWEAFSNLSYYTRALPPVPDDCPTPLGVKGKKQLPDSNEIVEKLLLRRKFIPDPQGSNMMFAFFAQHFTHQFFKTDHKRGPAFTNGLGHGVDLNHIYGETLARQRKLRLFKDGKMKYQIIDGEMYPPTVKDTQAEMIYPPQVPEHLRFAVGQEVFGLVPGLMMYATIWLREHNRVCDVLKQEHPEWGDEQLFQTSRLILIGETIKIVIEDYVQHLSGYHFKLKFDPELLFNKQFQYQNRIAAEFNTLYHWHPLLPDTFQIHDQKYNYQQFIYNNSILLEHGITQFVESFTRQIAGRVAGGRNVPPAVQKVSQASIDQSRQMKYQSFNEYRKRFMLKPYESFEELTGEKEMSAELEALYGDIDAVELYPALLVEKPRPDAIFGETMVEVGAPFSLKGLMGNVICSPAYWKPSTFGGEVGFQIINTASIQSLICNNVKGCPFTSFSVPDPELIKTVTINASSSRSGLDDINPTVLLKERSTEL
The test can be described thus: Inhibition of cyclooxygenase-2: PGE2 production in human osteosarcoma 143 cells, whole cell assay. Type of test: cell-based.

In test [2] the target is T2, cyclooxygenase-1 (human U-937 cells) (Homo sapiens, UniProt P23219).
T2 construct: human U-937 cells (which specifically express cyclooxygenase-1); endogenous in cells; host or cells: human U-937 cells
The test can be described thus: Inhibition of cyclooxygenase-1: PGE2 production in human U-937 cells, whole cell assay. Type of test: cell-based. The conditions noted are these: PGE2 synthesis in response to arachidonic acid, read-out: Cox-1 IC50.

For test [3], the system named is rat paw edema. The test can be described thus: Rat Paw Edema Assay (carrageenan), edema inhibition. The format is in vivo, Male Sprague-Dawley rats. The conditions noted are these: po 1 hr before carrageenan, paw volume at 3 hr. The procedure: Rat Paw Edema Assay-Protocol
Male Sprague-Dawley rats (150-200 g) are fasted overnight and are given po either vehicle (1% methocel or 5% Tween 80) or a test compound. One hr later, a line is drawn using a permanent marker at the level above the ankle in one hind paw to define the area of the paw to be monitored. The paw volume (V0) is measured using a plethysmometer (Ugo-Basile, Italy) based on the principle of water displacement. The animals are then injected subplantarly with […] of 1% carrageenan solution in saline (FMC Corp, Maine) into the paw using an insulin syringe with a 25-gauge needle (i.e., […] carrageenan per paw). Three hr later, the paw volume (V3) is measured and the increases in paw volume (V3 -V0) are calculated. The animals are sacrificed by CO2 asphyxiation and the absence or presence of stomach lesions scored. Data is compared with the vehicle-control values and percent inhibition calculated. All treatment groups are coded to eliminate observer bias.
A general note: Carrageenan injected into the paw causes an acute inflammation.

Where [4] appears, read: human osteosarcoma 143 cells, whole cell, PGE2 synthesis in response to arachidonic acid, read-out: Cox-2 IC50.

T2 sequence (P23219 24-599): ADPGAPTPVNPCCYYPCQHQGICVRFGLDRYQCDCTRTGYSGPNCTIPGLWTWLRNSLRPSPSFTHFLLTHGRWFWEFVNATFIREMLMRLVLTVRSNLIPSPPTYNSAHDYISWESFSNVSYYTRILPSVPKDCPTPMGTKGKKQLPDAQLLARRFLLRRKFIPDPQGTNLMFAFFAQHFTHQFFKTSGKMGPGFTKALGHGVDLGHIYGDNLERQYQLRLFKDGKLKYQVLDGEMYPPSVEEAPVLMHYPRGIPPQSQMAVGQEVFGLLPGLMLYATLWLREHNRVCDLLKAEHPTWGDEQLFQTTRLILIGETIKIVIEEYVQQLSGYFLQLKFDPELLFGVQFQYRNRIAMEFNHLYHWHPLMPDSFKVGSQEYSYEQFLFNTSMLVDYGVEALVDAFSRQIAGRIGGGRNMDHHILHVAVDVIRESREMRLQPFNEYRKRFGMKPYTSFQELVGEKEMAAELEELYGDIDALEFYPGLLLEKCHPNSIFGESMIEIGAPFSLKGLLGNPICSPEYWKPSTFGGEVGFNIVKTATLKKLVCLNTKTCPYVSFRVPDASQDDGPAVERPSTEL

Broadly, the IC50 is the midpoint of a concentration-inhibition curve. With `COc1ccc2c(c1)c(CCCC(=O)O)c(C)n2Cc1ccc(Br)cc1` [Example 4, 4-(1-(4-Bromobenzyl)-5-methoxy-2-methyl-1H-indol-3-yl)butanoic acid], the IC50 is 6 nM in test [1] (setting [4]) and over 10000 nM in test [2]. For the same compound, the ED30 in test [3] turned out to be 1.2 mg/kg.
`COc1ccc2c(c1)c(CC(=O)O)c(C)n2C(=O)c1ccc(Cl)cc1` [Indomethacin, reference compound] came in with an ED30 in test [3] of 0.9 mg/kg.
Consider `COc1ccc2c(c1)c(CC1(CC(=O)O)CC1)c(C)n2Cc1ccc(Br)cc1` [Example 2, [4-(1-(4-Bromobenzyl) -5-methoxy-2-methyl-1 H-indol-3-yl) -3-(ethane-1,2-diyl)]butanoic acid, sodium salt], for which the IC50 in test [1] is 16 nM; in test [2], over 100000 nM. This compound registered an ED30 in test [3] of 0.54 mg/kg.
As to `COc1ccc2c(c1)c(CC1(CC(=O)O)CC1)c(C)n2Cc1ccc(Cl)cc1` [Example 25, 4-[1-(4-Chlorobenzyl)-5-methoxy-2-methyl-1H-indol-3-yl]-3-(ethane-1,2-diyl)butanoic acid], the IC50 in test [1] (setting [4]) was 9 nM; in test [2] it was over 25000 nM. In test [3], this compound had an ED30 of over 3 mg/kg.
For the compound `COc1ccc2c(c1)c(C(C)C(=O)O)c(C)n2Cc1ccc(Cl)cc1` (stereo not shown) [MK-555, a-(1-p-chlorobenzyl-2-methyl-5-methoxy-3-indolyl)propionic acid, reference compound], the ED30 in test [3] was 3 mg/kg.
With `Cc1c(CCCC(=O)O)c2cc(Br)ccc2n1Cc1ccc(Br)cc1` [Example 24, 4-[5-Bromo-1-(4-bromobenzyl)-2-methyl-1H-indol-3-yl]butanoic acid], the results for the IC50 in test [1] (setting [4]) and in test [2] were 6 nM and over 50000 nM, respectively. In addition, the ED30 in test [3] is about 3 mg/kg.
For `Cc1c(CC(C)CC(=O)O)c2cc(Cl)ccc2n1Cc1ccc(Br)cc1` (racemic) [Example 34, 4-[1-(4-Bromobenzyl)-5-chloro-2-methyl-1 H-indol-3-yl]-3-methyl-butanoic acid], the IC50 was 5 nM in test [1] (setting [4]) and over 10000 nM in test [2]. Further, in test [3], the ED30 was 0.51 mg/kg.
Turning to `COc1ccc2c(c1)c(C[C@@H](C)CC(=O)O)c(C)n2Cc1ccc(Br)cc1` [Example 8, (3R) 4-(1-(4-Bromobenzyl)-5-methoxy-2-methyl-1H-indol-3-yl)-3-methylbutanoic ac id], in test [2], the IC50 was over 10000 nM. The ED30 in test [3] turned out to be 0.6 mg/kg.
